Patent US12145944B2, “Imidazopyrimidines as EED inhibitors and the use thereof” (THE REGENTS OF THE UNIVERSITY OF MICHIGAN, priority 2019, dated 2024)
Where two headings read alike, the source gives them in different places.

What was measured:
[1] = system: KARPAS422 human B cell lymphoma cell; experiment: Cell proliferation, KARPAS422, 7 day treatment (WST-8); format: cell-based; conditions: Homo sapiens, KARPAS-422, 168 h, 7 day treatment, read-out: Karpas Cell line
Method in brief: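 Read-out was WST-8 absorbance at 450 nm after 1-4 h with reagent, taken after 7-day compound treatment (serial dilutions, 37 °C, 5% CO2) of 2 000-3 000 KARPAS422 cells per well. IC50 fitted by nonlinear regression on DMSO-normalized values.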

Pfeiffer cell line = experiment: Anti-proliferative activity, Pfeiffer cell line, 7 day treatment; format: cell-based; conditions: Homo sapiens, 168 h, 7 day treatment, read-out: Pfeiffer Cell line
Method: “N/A” stands for “not assessed”.
To assess the effect of PRC2 inhibition on cell growth, cells were seeded in 96-well cell culture plates at a density of 2 000-3 000 cells/well in 200 µL of culture medium, and treated with serially diluted compounds for 7 days at 37° C. in an atmosphere of 5% CO2. Cell growth was evaluated by a […] WST-8 assay (Dojindo Molecular Technologies) using a Tecan Infinite M1000 multimode microplate reader (Tecan, Morrisville, NC). The WST-8 reagent was added to the plate, incubated for 1-4 h, and read at 450 nm. The readings were normalized to the DMSO-treated cells, and the IC50 was calculated by nonlinear regression analysis using GraphPad Prism 6 software

[2] = anti-proliferative IC50 class, Karpas 422 cell line
[3] = anti-proliferative IC50 class, Pfeiffer cell line
[4] = anti-proliferative IC50, Karpas 422 cell line
[5] = anti-proliferative IC50, Pfeiffer cell line

Structure (SMILES) | IC50 [1, 2] [nM] | IC50 (Pfeiffer cell line; [3]) [nM] | IC50 [1, 4] [nM] | IC50 (Pfeiffer cell line; [5]) [nM]
O=C1NCCc2ccccc2-c2cnc(NCc3c(F)ccc4c3CCO4)n3cnc1c23 [E 28, 13-(((5-fluoro-2,3-dihydrobenzofuran-4-yl)methyl)amino)-5,6-dihydro-2,4,12,13a-tetraazabenzo[4,5]cyclonona[1,2,3-cd]inden-3(4H)-one] | > 100 | 10 to 100 |  | 
Fc1ccc2c(c1CNc1ncc3c4c(ncn14)-c1nccn1Cc1cc(C(F)(F)F)ncc1-3)CCO2 [E 33, N-((5-fluoro-2,3-dihydrobenzofuran-4-yl)methyl)-8-(trifluoromethyl)-6H-2,3,5a,9,12,13a-hexaazabenzo[4,5]cyclopenta[7,8]cycloocta[1,2,3-cd]inden-13-amine] | 10 to 100 | 10 to 100 |  | 
Cc1ccc2c(n1)Cn1ccnc1-c1ncn3c(NCc4c(F)ccc5c4CCO5)ncc-2c13 [E 34, N-((5-fluoro-2,3-dihydrobenzofuran-4-yl)methyl)-8-methyl-6H-2,3,5a,7,12,13a-hexaazabenzo[4,5]cyclopenta[7,8]cycloocta[1,2,3-cd]inden-13-amine] | 10 to 100 | < 10 |  | 
Cc1onc2c1Cc1cc(C(F)(F)F)ncc1-c1cnc(NCc3c(F)ccc4c3CCO4)n3cnc-2c13 [E 35, N-((5-fluoro-2,3-dihydrobenzofuran-4-yl)methyl)-5-methyl-8-(trifluoromethyl)-6H-4-oxa-2,3,9,12,13a-pentaazabenzo[4,5]cyclopenta[7,8]cycloocta [1,2,3-cd]inden-13-amine] | 10 to 100 | 10 to 100 |  | 
Cc1ccc2c(n1)Cc1conc1-c1ncn3c(NCc4c(F)ccc5c4CCO5)ncc-2c13 [E 36, N-((5-fluoro-2,3-dihydrobenzofuran-4-yl)methyl)-8-methyl-6H-4-oxa-2,3,7,12,13a-pentaazabenzo[4,5]cyclopenta[7,8]cycloocta [1,2,3-cd]inden-13-amine] | 10 to 100 | 10 to 100 |  | 
CCc1cnc2n1Cc1cc(C(F)(F)F)ncc1-c1cnc(NCc3c(F)ccc4c3CCO4)n3cnc-2c13 [E 37, 5-ethyl-N-((5-fluoro-2,3-dihydrobenzofuran-4-yl)methyl)-8-(trifluoromethyl)-6H-2,3,5a,9,12,13a-hexaazabenzo[4,5]cyclopenta[7,8]cycloocta[1,2,3-cd]inden-13-amine] | 10 to 100 | 10 to 100 |  | 
CCc1cnc2n1Cc1nc(C)ccc1-c1cnc(NCc3c(F)ccc4c3CCO4)n3cnc-2c13 [E 38, 5-ethyl-N-((5-fluoro-2,3-dihydrobenzofuran-4-yl)methyl)-8-methyl-6H-2,3,5a,7,12,13a-hexaazabenzo[4,5]cyclopenta[7,8]cycloocta[1,2,3-cd]inden-13-amine] | 10 to 100 | 10 to 100 |  | 
Cc1ccc2c(n1)CN(CC(F)(F)F)C(=O)c1ncn3c(NCc4c(F)ccc5c4CCCO5)ncc-2c13 [E 39, 12-(((6-fluorochroman-5-yl)methyl)amino)-7-methyl-4-(2,2,2-trifluoroethyl)-4,5-dihydro-3H-2,4,6,11,12a-pentaazabenzo[4,5]cycloocta[1,2,3-cd]inden-3-one] | 10 to 100 | < 10 |  | 
Cc1cccc(F)c1CNc1ncc2c3c(ncn13)COCc1ncccc1-2 [compound 1, N-(2-fluoro-6-methylbenzyl)-3H,5H-4-oxa-2,6,11,12a-tetraazabenzo[4,5]cycloocta[1,2,3-cd]inden-12-amine] |  |  | > 100 | > 100
CS(=O)(=O)c1ccc2c(c1)NC(=O)c1ncn3c(NCc4c(F)ccc5c4CCO5)ncc-2c13 [compound 5, 11-(((5-fluoro-2,3-dihydrobenzofuran-4-yl)methyl)amino)-6-(methylsulfonyl)-2,4,10,11a-tetraazadibenzo[cd,f]azulen-3(4H)-one] |  |  | 32.2 | 18.1

The remaining lines, values ahead:

IC50 [1, 2] [nM] | IC50 (Pfeiffer cell line; [3]) [nM] | IC50 [1, 4] [nM] | IC50 (Pfeiffer cell line; [5]) [nM] | Structure (SMILES)
10 to 100 | < 10 |  |  | Cc1ccc2c(n1)Cn1c(C)cnc1-c1ncn3c(NCc4c(F)ccc5c4CCO5)ncc-2c13 [E 18, N-((5-fluoro-2,3-dihydrobenzofuran-4-yl)methyl)-5,8-dimethyl-6H-2,3,5a,7,12,13a-hexaazabenzo[4,5]cyclopenta[7,8]cycloocta[1,2,3-cd]inden-13-amine]
10 to 100 | 10 to 100 |  |  | [2H]C([2H])(Nc1ncc2c3c(ncn13)C(=O)N(CC(F)(F)F)Cc1cc(C(=O)N(C)C)ccc1-2)c1c(F)ccc2c1CCO2 [E 24, 12-(((5-fluoro-2,3-dihydrobenzofuran-4-yl)methyl-d2)amino)-N,N-dimethyl-3-oxo-4-(2,2,2-trifluoroethyl)-4,5-dihydro-3H-2,4,11,12a-tetraazabenzo[4,5]cycloocta[1,2,3-cd]indene-7-carboxamide]
10 to 100 | 10 to 100 |  |  | Cc1ccc2c(n1)CCNC(=O)c1ncn3c(NCc4c(F)ccc5c4CCO5)ncc-2c13 [E 29, 13-(((5-fluoro-2,3-dihydrobenzofuran-4-yl)methyl)amino)-8-methyl-5,6-dihydro-2,4,7,12,13a-pentaazabenzo[4,5]cyclonona[1,2,3-cd]inden-3(4H)-one]
10 to 100 | 10 to 100 |  |  | Cc1ccc2c(n1)CCN(CC(F)(F)F)C(=O)c1ncn3c(NCc4c(F)ccc5c4CCO5)ncc-2c13 [E 30, 13-(((5-fluoro-2,3-dihydrobenzofuran-4-yl)methyl)amino)-8-methyl-4-(2,2,2-trifluoroethyl)-5,6-dihydro-2,4,7,12,13a-pentaazabenzo[4,5]cyclonona[1,2,3-cd]inden-3(4H)-one]
10 to 100 | 10 to 100 |  |  | CC(C)N1CCc2cc(C(F)(F)F)ncc2-c2cnc(NCc3c(F)ccc4c3CCO4)n3cnc(c23)C1=O [E 31, 13-(((5-fluoro-2,3-dihydrobenzofuran-4-yl)methyl)amino)-4-isopropyl-8-(trifluoromethyl)-5,6-dihydro-2,4,9,12,13a-pentaazabenzo[4,5]cyclonona[1,2,3-cd]inden-3(4H)-one]
10 to 100 | < 10 |  |  | Fc1ccc2c(c1CNc1ncc3c4c(ncn14)-c1nccn1Cc1nc(C(F)(F)F)ccc1-3)CCO2 [E 32, N-((5-fluoro-2,3-dihydrobenzofuran-4-yl)methyl)-8-(trifluoromethyl)-6H-2,3,5a,7,12,13a-hexaazabenzo[4,5]cyclopenta[7,8]cycloocta[1,2,3-cd]inden-13-amine]
< 10 | < 10 |  |  | O=C1c2ncn3c(NCc4c(F)ccc5c4CCO5)ncc(c23)-c2ccc(C3CCOCC3)nc2CN1CC(F)(F)F [E 45, 12-(((5-fluoro-2,3-dihydrobenzofuran-4-yl)methyl)amino)-7-(tetrahydro-2H-pyran-4-yl)-4-(2,2,2-trifluoroethyl)-4,5-dihydro-3H-2,4,6,11,12a-pentaazabenzo[4,5]cycloocta[1,2,3-cd]inden-3-one]
< 10 | < 10 |  |  | CC(C)(C)c1cc2c(cn1)-c1cnc(NCc3c(F)ccc4c3CCO4)n3cnc(c13)C(=O)N(CC(F)(F)F)C2 [E 46, 7-(tert-butyl)-12-(((5-fluoro-2,3-dihydrobenzofuran-4-yl)methyl)amino)-4-(2,2,2-trifluoroethyl)-4,5-dihydro-3H-2,4,8,11,12a-pentaazabenzo[4,5]cycloocta[1,2,3-cd]inden-3-one]
< 10 | < 10 |  |  | CC(C)c1ccc2c(n1)CN(CC(F)F)C(=O)c1ncn3c(NCc4c(F)ccc5c4CCO5)ncc-2c13 [E 47, 4-(2,2-difluoroethyl)-12-(((5-fluoro-2,3-dihydrobenzofuran-4-yl)methyl)amino)-7-isopropyl-4,5-dihydro-3H-2,4,6,11,12a-pentaazabenzo[4,5]cycloocta[1,2,3-cd]inden-3-one]
< 10 | < 10 |  |  | O=C1c2ncn3c(NCc4c(F)ccc5c4CCO5)ncc(c23)-c2ccc(C3COCCO3)nc2CN1CC(F)(F)F (stereo not shown) [E 48, 7-(1,4-dioxan-2-yl)-12-(((5-fluoro-2,3-dihydrobenzofuran-4-yl)methyl)amino)-4-(2,2,2-trifluoroethyl)-4,5-dihydro-3H-2,4,6,11,12a-pentaazabenzo[4,5]cycloocta[1,2,3-cd]inden-3-one]
< 10 | < 10 |  |  | O=C1c2ncn3c(NCc4c(F)ccc5c4CCO5)ncc(c23)-c2ccc(CC3COCCO3)nc2CN1CC(F)(F)F (stereo not shown) [E 49, 7-((1,4-dioxan-2-yl)methyl)-12-(((5-fluoro-2,3-dihydrobenzofuran-4-yl)methyl)amino)-4-(2,2,2-trifluoroethyl)-4,5-dihydro-3H-2,4,6,11,12a-pentaazabenzo[4,5]cycloocta[1,2,3-cd]inden-3-one]
< 10 | < 10 |  |  | CC(C)(C)c1ccc2c(n1)CN(CC(F)(F)F)C(=O)c1ncn3c(NCc4c(F)ccc5c4CCO5)ncc-2c13 [E 50, 7-(tert-butyl)-12-(((5-fluoro-2,3-dihydrobenzofuran-4-yl)methyl)amino)-4-(2,2,2-trifluoroethyl)-4,5-dihydro-3H-2,4,6,11,12a-pentaazabenzo[4,5]cycloocta[1,2,3-cd]inden-3-one]
< 10 | < 10 |  |  | O=C1c2ncn3c(NCc4c(F)ccc5c4CCO5)ncc(c23)-c2ccc(C3CCC3)nc2CN1CC(F)(F)F [E 52, 7-cyclobutyl-12-(((5-fluoro-2,3-dihydrobenzofuran-4-yl)methyl)amino)-4-(2,2,2-trifluoroethyl)-4,5-dihydro-3H-2,4,6,11,12a-pentaazabenzo[4,5]cycloocta[1,2,3-cd]inden-3-one]
